Data on one substance can be found in patent publication US20260250412A1, “COMBINATION OF ANTIBODY-DRUG CONJUGATE AND ANTI-PD-1 ANTIBODY, AND USE THEREOF” (GENEQUANTUM HEALTHCARE (SUZHOU) CO., LTD., priority 2023, published 2026).

pIC50: −log10 of the molar value.

Assay [1] relates to human breast cancer cells MDA-MB-468. Nature of the assay: Cell proliferation, CellTiter Glo, 96 h, MDA-MB-468. It is filed as cell-based. The note with it: MDA-MB-468, 96 h. In general terms: ATP-based viability assays read luminescence as a measure of living cells.
The subject of assay [2] is human pancreatic cancer cells BxPC-3. Nature of the assay: Cell proliferation, CellTiter Glo, 96 h, BxPC-3. It is filed as cell-based. The conditions noted are these: BxPC-3, 96 h. As to the method: A positive control group was set: 100 μL Puromycin at a concentration of 10 μg/mL was added to each well. […] After the administration was completed, the cells were moved to the incubator and incubated for 96 h. The 96-well plate was removed from the 37° C. cell incubator and equilibrated to room temperature for 30 minutes. After the medium was discarded, 100 μL of DMEM and 50 μL of CellTiter Glo reagent were added to each well, and the cells were shaken in the dark at 200 rpm for 15 minutes, and the luminescent signal reflecting cell viability was detected by a microplate reader.

Take DS1062a: the “inhibition of proliferation (in words)” value is “could inhibit the proliferation of MDA-MB-468 cells” in assay [1] and “could inhibit the proliferation of BxPC-3 cells” in assay [2]. The pIC50 in assay [1] (Table 9) is 8.60; in assay [2] (Table 8), 9.23.

For orientation: pIC50 means −log10 of the IC50, conventionally taken in molar units. A high value points to a small IC50.
